Experimental data published in US9950026B2, “Methods for reducing oxidative damage” (Cornell Research Foundation, Inc., priority 2004, dated 2018).
“Also recorded” adds a separate entry of the source. Where a SMILES comes first, the peptide text is derived from it. [ ]: non-standard residue; d: D form. Dmt = Cc1cc(O)cc(C)c1C[C@H](N)C(=O)O

Experiments:
[1] = Scavenging of H2O2, luminol-induced chemiluminescence; format: biochemical; conditions: H2O2 4.4 nmol, 20 min, 37° C.
Experimental: Effect of SS-02 and SS-05 (Dmt-D-Arg-Phe Orn-NH2) on H2O2 as measured by luminol-induced chemiluminescence, 25 μM luminol and 0.7 IU horseradish peroxidase were added to the solution of H2O2 (4.4 nmol) and peptide, and chemiluminescence was monitored with a Chronolog Model 560 aggregometer (Havertown, Pa.) for 20 min at 37° C.

[2] = system: Human LDL (low density lipoprotein); assay: LDL oxidation induced by CuSO4 (conjugated dienes); format: biochemical; conditions: for rate of LDL oxidation (rate of formation of conjugated dienes): peptides 100 μM
Experimental: Human LDL (low density lipoprotein) was prepared fresh from stored plasma. LDL oxidation was induced catalytically by the addition of […] CuSO4, and the formation of conjugated dienes was monitored at […] for 5 h at 37° C. (B. Moosmann and C. Behl, Mol Pharmacol., 61, 260-268 (2002)).

[3] = system: isolated mouse liver mitochondria; assay: H2O2 production by isolated mitochondria, luminol chemiluminescence; format: biochemical; conditions: for amount of H2O2 generated (AUC over 20 min): spontaneous, SS peptides 100 μM
Experimental: Because mitochondria are a major source of ROS production, the effect of SS-02 on H2O2 formation in isolated mitochondria under basal conditions as well as after treatment with antimycin, a complex III inhibitor was examined. Livers were harvested from mice and homogenized in ice-cold buffer and centrifuged at 13800×g for 10 m. The pellet was washed once and then re-suspended in 0.3 ml of wash butter and placed on ice until use H2O2 was measured using luminol chemiluminescence as described previously (Y. Li, H. Zhu, M. A. Trush, Biochim. Biophys. Acta 1428, 1-12 (1999)). 0.1 mg mitochondrial protein was added to 0.5 ml potassium phosphate buffer (100 mM, pH 8.0) in the absence or presence of SS peptides (100 μM). 25 mM luminol and 0.7 IU horseradish peroxidase were added, and chemilumunescence was monitored with a Chronolog Model 560 aggregometer (Havertown, Pa.) for 20 min at 37° C. The amount of H2O2 produced was quantified as the area under the curve (AUC) over 20 min, and all data were normalized to AUC produced by mitochondria alone.
H2O2 was measured using luminol chemiluminescence as described previously (Y, Li, H. Zhu, M. A. Trush, Biochim. Biophys. Acta 1428, 1-12 (1999)). 0.1 mg mitochondrial protein was added to 0.5 ml potassium phosphate buffer (100 mM, pH 8.0) in the absence or presence of SS-31. 25 mM luminol and 0.7 IU horseradish peroxidase were added, and chemilumunescence was monitored with a Chronolog Model 560 aggregometer (Havertown, Pa.) for 20 min at 37° C. The amount of H2O2 produced was quantified as the area under the curve (AUC) over 20 min, and all data were normalized to AUC produced by mitochondria alone.

[4] = system: N2A cells; assay: Intracellular ROS (DCF fluorescence) in cells treated with tBHP; format: cell-based, murine; conditions: for EC50, reduction of intracellular ROS / intracellular ROS: tBHP 0.5 or 1 mM 40 min, then peptide 4 hr
Experimental: FIG. 22A-22C. […] (A) N2A cells were loaded with DCFDA, and then exposed to 100 μM tBHP alone, or with SS-31. Intracellular ROS was quantified by the formation of fluorescent DCF. Results shown are mean values (n=3). (B)(a-c) N2A cells were plated in glass bottom dishes and treated with 50 μM tBHP, alone or with 1 nM SS-31, for 6 h. Cells were loaded with DCFDA (10 μM) and imaged by confocal laser scanning microscopy using ex/em of 495/525 nm. (C) Effect of 1 nM SS-31 in reducing intracellular ROS induced by 50 μM tBHP (*P<0.001 compared to untreated cells; *P<0.05 compared to tBHP alone).
(§1) Cells were washed twice and replaced with medium alone or medium containing varying concentrations of SS-02 or SS-31 for 4 hr. Intracellular ROS was measured by carboxy-H2DCFDA (Molecular Probes, Portland, Oreg.). Cell death was assessed by a cell proliferation assay (MTS assay, Promega, Madison, Wis.).
Intracellular ROS was evaluated using the fluorescent probe DCFH-DA (5-(and -6)-carboxy-2′,7′-dichlorodihydrofluorescein diacetate). DCFH-DA enters cells passively and is then deacetylated to nonfluorescent DCFH. DCFH reacts with ROS to form DCF, the fluorescent product. N2A cells in 96 sell plates were washed with HBSS and loaded with 10 μM of DCFDA for 30 min. […]. at 37° C. Cells were washed 3 times with BSS and exposed to 0.1 mM of t-BHP, alone or with SS-31. The oxidation of DCF was monitored in real time by a fluorescence microplate reader (Molecular Devices) using 485 nm for excitation and 530 nm for emission.
N2A cells in glass bottom dish were treated with 0.1 mM t-BHP, alone or with 1 nM SS-31, for 6 h. Cells were then loaded with 10 μm of dichlorofluorescin (ex/em=485/530) for 30 min at 37° C., 5% CO2. Then cells were subjected 3 times wash with HBSS and stained with 20 nM of Mitotracker TMRM (ex/em=550/575 nm) for 15 min at 37° C. and examined by confocal laser scanning microscopy.

[5] = system: N2A cells; assay: Cell viability, MTS assay, cells treated with tBHP; format: cell-based, murine; conditions: for EC50, increase of cell survival / cell survival (MTS): tBHP 0.5 or 1 mM 40 min, then peptide 4 hr
Experimental: as §1
Neuronal N2A and SH-SY5Y cells were plated in 96-well plate at a density of 1×10^4/well and allowed to grow for 2 days before treatment with t-butyl hydroperoxide (tBHP) (0.05-0.1 mM) with or without SS-31 (10^−12 M to 10^−9 M for 24 h. Cell death was assessed by a cell proliferation assay (MTS assay, Promega, Madison, Wis.).

[6] = system: isolated guinea pig hearts; assay: HNE-modified proteins in isolated hearts, brief ischemia-reperfusion (Langendorff); conditions: 100 nM SS-02, 1 nM SS-31
Experimental: Isolated guinea pig hearts were perfused in a retrograde manner in a Langendorff apparatus and subjected to various intervals of ischemia-reperfusion. Hearts were then fixed immediately and embedded in paraffin. Immunohistochemical analysis of 4-hydroxy-2-nonenol (HNE)-modified proteins in the paraffin sections was carried out using an anti-HNE antibody.
(A) Immunohistochemical analysis of 4-hydroxy-2-nonenol (HNE)-modified proteins in paraffin sections from guinea pig hearts aerobically perfused 30 min with (a) buffer; (b) 100 nM SS-02; (c) 100 nM SS-20 and (d) 1 nM SS-31, then subjected to 30 min ischemia and reperfused for 90 min with same peptides. Tissue slices were incubated with […] antibody. (e) Background control: staining without primary antibody.
(B) Immunohistochemical analysis of HNE-modified proteins in paraffin sections from guinea pig hearts aerobically perfused 30 min with buffer; then subjected to 30 min ischemia and reperfused with (a) buffer; (b) 100 nM SS-02; (c) 100 nM SS-20 and (d) 1 nM SS-31 for 90 min with same peptides. Tissue slices were incubated with anti-HNE antibody. (e) Background control staining without primary antibody.

[7] = Linoleic acid peroxidation induced by ABAP (conjugated dienes); conditions: for rate of linoleic acid peroxidation (slope of diene formation): peptides 100 μM
[8] = peptide only during 90 min reperfusion
[9] = peptide perfused 30 min before 30 min ischemia and during 90 min reperfusion

| Compound | luminol response (H2O2 scavenging) [1] | rate of LDL oxidation (rate of formation of conjugated dienes) [2] | rate of LDL oxidation ([2]; varying concentrations, 10 mM CuSO4) | amount of H2O2 generated (AUC over 20 min) [3] | EC50, reduction of intracellular ROS [4] | intracellular ROS [4] | EC50, increase of cell survival [5] | cell survival (MTS) [5] | lipid peroxidation (HNE-modified proteins) [6, 8] | lipid peroxidation (HNE-modified proteins) [6, 9] | rate of linoleic acid peroxidation (slope of diene formation) [7] | peroxidation of linoleic acid ([7]; varying concentrations) | production of H2O2 induced by antimycin ([3]; dose response) | spontaneous production of H2O2 ([3]; dose response) | DCF fluorescence (fluorescent microscopy) ([4]; 50 μM tBHP, 1 nM SS-31, 6 h) | reduction of ROS production ([4]; 100 μM tBHP, 1 nM SS-31) | rate of ROS accumulation/production ([4]; 0.1 mM (100 μM) t-BHP, over 4 h) | ROS accumulation (DCF fluorescence, confocal) ([4]; 0.1 mM t-BHP, 1 nM SS-31, 6 h) | concentration achieving complete protection against t-BHP ([5]; t-BHP 0.05-0.1 mM, 24 h) | t-BHP-induced cytotoxicity ([5]; t-BHP 0.05-0.1 mM, 24 h, concurrent treatment) |
| --- | --- | --- | --- | --- | --- | --- | --- | --- | --- | --- | --- | --- | --- | --- | --- | --- | --- | --- | --- | --- |
| 2′,6′-Dmt-Arg-Phe-Lys-NH2 [SS-02] | dose-dependently inhibited | reduced rate of LDL oxidation | dose-dependently inhibited | significantly reduced | nM range | dose-dependently reduced intracellular ROS | nM range | increased cell survival | reduced lipid peroxidation | reduced lipid peroxidation | reduced the rate of linoleic acid peroxidation | dose-dependently inhibited |  |  |  |  |  |  |  |  |
| Cc1cc(O)cc(C)c1C[C@H](NC(=O)[C@H](N)CCCNC(=N)N)C(=O)N[C@@H](CCCCN)C(=O)N[C@@H](Cc1ccccc1)C(N)=O [SS-31, D-Arg-2′6′-Dmt-Lys-Phe-NH2] (H-[dR][Dmt]KF-NH2; N-terminus assumed) |  | reduced rate of LDL oxidation |  | significantly reduced | nM range | dose-dependently reduced intracellular ROS | nM range | increased cell survival | reduced lipid peroxidation | reduced lipid peroxidation | reduced the rate of linoleic acid peroxidation |  | dose-dependently reduced | dose-dependently reduced | significantly reduced | > 50% | dose-dependently inhibited; also recorded: dose-dependently reduced | reduced ROS accumulation | 1 nM | dose-dependent reduction |
